Source: PMC8226449, “In Vitro Evaluation of the Squaramide-Conjugated Fibroblast Activation Protein Inhibitor-Based Agents AAZTA^5.SA.FAPi and DOTA.SA.FAPi” (Molecules, 2021)
Where two headings read alike, the source gives them in different places.

Tests used:
Recombinant human FAP [1] = target: T1, Recombinant human FAP (Homo sapiens, UniProt Q12884); assay: FAP inhibition assay (IC50, Z-Gly-Pro-AMC substrate); type: biochemical; details: for IC50: mean with standard deviation, n = 3; for Selectivitiy Index (FAP/PREP): ratio of PREP IC50 and FAP IC50
T1 construct: made in house
T1 sequence (Q12884 1-760): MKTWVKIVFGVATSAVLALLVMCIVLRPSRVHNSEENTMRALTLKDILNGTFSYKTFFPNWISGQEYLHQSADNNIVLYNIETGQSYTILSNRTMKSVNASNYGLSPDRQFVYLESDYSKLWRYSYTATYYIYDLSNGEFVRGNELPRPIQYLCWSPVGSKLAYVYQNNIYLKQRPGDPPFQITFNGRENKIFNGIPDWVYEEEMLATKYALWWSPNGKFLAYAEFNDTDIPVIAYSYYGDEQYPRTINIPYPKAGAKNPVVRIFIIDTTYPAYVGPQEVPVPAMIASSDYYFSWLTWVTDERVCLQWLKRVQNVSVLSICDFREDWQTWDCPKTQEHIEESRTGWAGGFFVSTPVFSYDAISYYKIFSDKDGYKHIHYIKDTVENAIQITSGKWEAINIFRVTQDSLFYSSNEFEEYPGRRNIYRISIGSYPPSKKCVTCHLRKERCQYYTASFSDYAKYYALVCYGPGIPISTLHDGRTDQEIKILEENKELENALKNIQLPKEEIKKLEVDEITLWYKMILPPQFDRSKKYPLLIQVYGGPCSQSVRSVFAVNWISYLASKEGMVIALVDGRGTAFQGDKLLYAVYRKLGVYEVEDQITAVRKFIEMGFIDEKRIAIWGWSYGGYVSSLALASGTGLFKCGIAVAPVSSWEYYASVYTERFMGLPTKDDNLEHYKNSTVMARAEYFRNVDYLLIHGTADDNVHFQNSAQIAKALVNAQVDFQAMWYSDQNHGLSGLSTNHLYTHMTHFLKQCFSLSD
Experimental: (§1) Enzymes: Recombinant human FAP and PREP were expressed and purified as published. Recombinant human dipeptidyl 9 (DPP9) was purified as described by De Decker et al.. Human dipeptidyl peptidase 4 was purified from seminal plasma as published.
(§2) IC50 measurements and counter-screening: IC50-measurements of the probes for FAP and PREP were carried out as published, using, respectively, Z-Gly-Pro-AMC and Suc-Gly-Pro-AMC as the substrate. IC50 experiments were repeated in triplicate, and the results are presented as mean ± standard deviation. Methods and data fitting were performed as published earlier. Screening against DPP4 and DPP9 was performed at final probe concentrations of 10 µM and 1 µM using Ala-Pro-paranitroanilide (pNA) as the substrate at the respective final concentrations of 25 μM (DPP4) and 150 μM (DPP9) at pH 7.4 (0.05 M HEPES-NaOH buffer with 0.1% Tween-20, 0.1 mg/mL BSA, and 150 mM NaCl). Probes were pre-incubated with the respective enzyme for 15 min at 37 °C; afterwards, the substrate was added, and the velocities of pNA release were measured kinetically at 405 nm for at least 10 min at 37 °C. Measurements were executed using the Infinite 200 (Tecan Group Ltd., Mennendorf, Switzerland), and the Magellan software was used to process the data.

Recombinant human PREP [2] = target: T2, Recombinant human PREP (Homo sapiens, UniProt P48147); assay: PREP inhibition assay (IC50, Suc-Gly-Pro-AMC substrate); type: biochemical; details: mean with standard deviation, n = 3
T2 construct: made in house
T2 sequence (P48147 1-710): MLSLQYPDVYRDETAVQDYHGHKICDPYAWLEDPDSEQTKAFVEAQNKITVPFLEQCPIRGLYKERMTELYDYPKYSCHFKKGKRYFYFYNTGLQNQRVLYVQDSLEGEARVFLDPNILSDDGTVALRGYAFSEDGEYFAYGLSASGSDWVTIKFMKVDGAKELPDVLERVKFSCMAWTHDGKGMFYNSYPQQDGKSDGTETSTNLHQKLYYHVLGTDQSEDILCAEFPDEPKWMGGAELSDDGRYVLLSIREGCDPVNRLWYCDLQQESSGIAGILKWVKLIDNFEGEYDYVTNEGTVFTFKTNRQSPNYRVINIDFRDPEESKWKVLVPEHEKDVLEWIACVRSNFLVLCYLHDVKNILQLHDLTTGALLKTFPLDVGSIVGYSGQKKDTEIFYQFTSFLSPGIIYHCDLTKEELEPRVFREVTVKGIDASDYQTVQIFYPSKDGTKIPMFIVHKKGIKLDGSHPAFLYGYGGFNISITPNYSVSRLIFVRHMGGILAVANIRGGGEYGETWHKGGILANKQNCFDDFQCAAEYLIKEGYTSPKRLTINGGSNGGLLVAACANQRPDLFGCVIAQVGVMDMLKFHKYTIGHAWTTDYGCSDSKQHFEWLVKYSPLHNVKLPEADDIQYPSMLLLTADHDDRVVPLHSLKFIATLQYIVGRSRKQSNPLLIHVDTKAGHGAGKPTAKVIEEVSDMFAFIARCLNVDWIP
Experimental: as §1, §2

DPPs (DPP4 and DPP9) = assay: Counter-screening against DPP4 and DPP9 (Ala-Pro-pNA substrate); type: biochemical, human; details: screened at 10 µM and 1 µM, reported as >1 µM if remaining activity more than 50% at 1 µM, n = 2
Experimental: as §1, §2

Recombinant human FAP [3] = target: T1, Recombinant human FAP; parameters: method as in Moon et al. [24]; details: mean with standard deviation; ref Moon et al. [24]; cited from earlier work
Recombinant human PREP [4] = target: T2, Recombinant human PREP; details: mean with standard deviation; ref Moon et al. [24]; cited from earlier work
[5] = Stability of radiolabelled complexes in human serum; type: in vitro ADME; details: human serum (HS), 37 °C
Experimental: (§3) Labeling was carried out with 100–150 MBq gallium-68 in 300 µL of 1 M ammonium acetate (AmAc) buffer pH 5.5 and with 30–40 MBq scandium-44 in 1 mL of 0.25 M AmAc pH 4.0, and aliquots were taken at 1, 3, 5, 10, and 15 min. For lutetium-177, activity of 30–40 MBq in 300 µL of 1 M AmAc pH 5.5 was used, and aliquots were taken at 1, 3, 5, 15, 30, and 60 min. Stability was tested in 500 µL of human serum, phosphate-buffered saline, ethanol, and saline (0.9% isotonic NaCl solution) using ~5 MBq of tracer solution with >95% radiochemical purity. […] HS (human male AB plasma, USA origin) and PBS were purchased from Sigma Aldrich, and 0.9% saline from B. Braun Melsungen AG (Melsungen, Germany).

[6] = Stability of radiolabelled complexes in PBS, saline (NaCl) and ethanol; type: physicochemical; details: 37 °C; for intact conjugate (stability): PBS and NaCl
Experimental: as §3

[7] = Lipophilicity (logD) by shake-flask method; type: physicochemical; details: pH = 7.4, 1-octanol/PBS
Experimental: Lipophilicity (logD value) was determined via the “shake-flask” method. For both precursors AAZTA^5.SA.FAPi and DOTA.SA.FAPi logD (pH = 7.4), values were measured for the ^68Ga- and ^44Sc complexes.
Lipophilicity of [^68Ga]Ga-AAZTA^5.SA.FAPi, [^44Sc]Sc-AAZTA^5.SA.FAPi and [^68Ga]Ga-DOTA.SA.FAPi was determined using the “shake-flask” methodology. After reaction of the precursor with the respective radionuclide, the reaction solution was adjusted to pH 7.4 with NaOH. Aliquots of ~5 MBq for the ^68Ga complexes and of ~3 MBq for the ^44Sc-complexed were taken and adjusted to a total volume of 700 μL with PBS (n= 4). 700 μL 1-octanol was added, and the solution was shaken for 2 min (1500 rpm). Afterwards, each tube was centrifuged for 2 min. 400 μL of the octanol- and PBS phases were pipetted in new tubes, and aliquots of each phase (3 µL of the PBS phase and 6 μL of the octanol phase) were measured via radio-TLC. The PBS phases were adjusted to 700 µL, and 700 μL octanol was added to each tube. The procedure was repeated twice. LogD values were calculated as the logarithm of the octanol/PBS ratio.

Compound: N#C[C@@H]1CC(F)(F)CN1C(=O)CNC(=O)c1ccnc2ccc(OCCCCNc3c(NCCNC(=O)CCCCC4(N(CC(=O)[O-])CC(=O)[O-])CN(CC(=O)[O-])CCN(CC(=O)[O-])C4)c(=O)c3=O)cc12.[Sc+3] [[^natSc]Sc-AAZTA^5.SA.FAPi]
- IC50 (Recombinant human FAP [1]): 0.57 ± 0.04 nM
- Selectivitiy Index (FAP/PREP) (Recombinant human FAP [1]): 6316
- IC50 (Recombinant human PREP [2]): 3600 ± 800 nM
- IC50 (DPPs (DPP4 and DPP9)): > 1000 nM

Compound: CN(CC(=O)O)C1(CCCCC(=O)NCCNc2c(NCCCCOc3ccc4nccc(C(=O)NCC(=O)N5CC(F)(F)C[C@H]5C#N)c4c3)c(=O)c2=O)CN(CC(=O)O)CCN(CC(=O)O)C1 [DATA^5m.SA.FAPi, reference compound]
- Selectivitiy Index (FAP/PREP) (Recombinant human FAP [1]): 2113
- IC50 (Recombinant human FAP [3]): 0.8 ± 0.2 nM
- IC50 (Recombinant human PREP [4]): 1700 ± 100 nM

Compound: N#C[C@@H]1CC(F)(F)CN1C(=O)CNC(=O)c1ccnc2ccc(OCCCCNc3c(NCCNC(=O)CCCCC4(N(CC(=O)[O-])CC(=O)[O-])CN(CC(=O)[O-])CCN(CC(=O)[O-])C4)c(=O)c3=O)cc12.[68Ga+3] [[^68Ga]Ga-AAZTA^5.SA.FAPi]
- intact complexes (stability) ([5]; over 2 h): > 99.9%
- intact complexes (stability) ([6]; ethanol (EtOH) and saline (NaCl), over 2 h): > 99.9%
- LogD7.4 [7]: −2.53 ± 0.13

Compound: N#C[C@@H]1CC(F)(F)CN1C(=O)CNC(=O)c1ccnc2ccc(OCCCCNc3c(NCCNC(=O)CN4CCN(CC(=O)[O-])CCN(CC(=O)[O-])CCN(CC(=O)[O-])CC4)c(=O)c3=O)cc12.[Lu+3] [[^natLu]Lu DOTA.SA.FAPi]
- Selectivitiy Index (FAP/PREP) (Recombinant human FAP [1]): 3125
- IC50 (DPPs (DPP4 and DPP9)): > 1000 nM
- IC50 (Recombinant human FAP [3]): 0.8 ± 0.2 nM
- IC50 (Recombinant human PREP [4]): 2500 ± 400 nM

Compound: N#C[C@@H]1CC(F)(F)CN1C(=O)CNC(=O)c1ccnc2ccc(OCCCCNc3c(NCCNC(=O)CN4CCN(CC(=O)[O-])CCN(CC(=O)[O-])CCN(CC(=O)[O-])CC4)c(=O)c3=O)cc12.[Ga+3] [[^natGa]Ga-DOTA.SA.FAPi]
- Selectivitiy Index (FAP/PREP) (Recombinant human FAP [1]): 6214
- IC50 (DPPs (DPP4 and DPP9)): > 1000 nM
- IC50 (Recombinant human FAP [3]): 1.4 ± 0.2 nM
- IC50 (Recombinant human PREP [4]): 8700 ± 900 nM

Compound: N#C[C@@H]1CC(F)(F)CN1C(=O)CNC(=O)c1ccnc2ccc(OCCCCNc3c(NCCNC(=O)CN4CCN(CC(=O)[O-])CCN(CC(=O)[O-])CCN(CC(=O)[O-])CC4)c(=O)c3=O)cc12.[44Sc+3] [[^44Sc]Sc-DOTA.SA.FAPi]
- intact conjugate (stability) ([5]; 8 h): > 97%
- intact conjugate (stability) ([6]; 8 h): > 97%

Compound: N#C[C@@H]1CC(F)(F)CN1C(=O)CNC(=O)c1ccnc2ccc(OCCCCNc3c(NCCNC(=O)CCCCC4(N(CC(=O)[O-])CC(=O)[O-])CN(CC(=O)[O-])CCN(CC(=O)[O-])C4)c(=O)c3=O)cc12.[Lu+3] [[^natLu]Lu-AAZTA^5.SA.FAPi]
- IC50 (Recombinant human FAP [1]): 0.55 ± 0.04 nM
- Selectivitiy Index (FAP/PREP) (Recombinant human FAP [1]): 5818
- IC50 (Recombinant human PREP [2]): 3200 ± 600 nM
- IC50 (DPPs (DPP4 and DPP9)): > 1000 nM

Compound: N#C[C@@H]1CC(F)(F)CN1C(=O)CNC(=O)c1ccnc2ccc(OCCCCNc3c(NCCNC(=O)CN4CCN(CC(=O)[O-])CCN(CC(=O)[O-])CCN(CC(=O)[O-])CC4)c(=O)c3=O)cc12.[177Lu+3] [[^177Lu]Lu-DOTA.SA.FAPi]
- intact conjugate (stability) ([5]; 10 days): > 99%
- intact conjugate (stability) ([6]; 3 d): > 98%
- intact conjugate (stability) ([6]; 10 days): > 93%

Compound: N#C[C@@H]1CC(F)(F)CN1C(=O)CNC(=O)c1ccnc2ccc(OCCCCNc3c(NCCNC(=O)CCCCC4(N(CC(=O)O)CC(=O)O)CN(CC(=O)O)CCN(CC(=O)O)C4)c(=O)c3=O)cc12 [AAZTA^5.SA.FAPi]
- IC50 (Recombinant human FAP [1]): 0.56 ± 0.02 nM
- Selectivitiy Index (FAP/PREP) (Recombinant human FAP [1]): 4286
- IC50 (Recombinant human PREP [2]): 2400 ± 400 nM
- IC50 (DPPs (DPP4 and DPP9)): > 1000 nM

Compound: N#C[C@@H]1CC(F)(F)CN1C(=O)CNC(=O)c1ccnc2ccc(OCCCCNc3c(NCCNC(=O)CCCCC4(N(CC(=O)[O-])CC(=O)[O-])CN(CC(=O)[O-])CCN(CC(=O)[O-])C4)c(=O)c3=O)cc12.[177Lu+3] [[^177Lu]Lu-AAZTA^5.SA.FAPi]
- intact conjugate (stability) ([5]; 1 h): > 99%
- intact conjugate (stability) ([5]; 3 h): > 98%
- intact conjugate (stability) ([5]; 1 d): > 83%
- intact conjugate (stability) ([5]; 2 d): > 64%
- intact conjugate (stability) ([5]; 3 d): > 55%
- intact conjugate (stability) ([6]; 2 d): > 99%
- intact conjugate (stability) ([6]; 3 d): > 98%
- intact conjugate (stability) ([6]; 10 days): > 95%

Compound: N#C[C@@H]1CC(F)(F)CN1C(=O)CNC(=O)c1ccnc2ccccc12 [UAMC1110-FAP inhibitor, reference compound]
- IC50 (DPPs (DPP4 and DPP9)): > 10000 nM
